Test results published in patent publication US11104680B2, “1,5-dihydro-4H-pyrazolo[3,4-d]pyrimidin-4-ones and 1,5-dihydro-4H-pyrazolo[4,3-c]pyridin-4-ones as PDE1 inhibitors” (H. Lundbeck A/S, priority 2016, dated 2021).
pIC50: −log10 of the molar value.

Experiments:
Format in all cases: biochemical
PDE1A = PDE1A (Homo sapiens (Human), UniProt P54750); assay: PDE1 inhibition assay (PDE1A), SPA; settings: 15 nM tritium labelled cAMP
Method: (§1) Reactions were initiated by addition of the cyclic nucleotide substrate, and reactions were allowed to proceed for 1 hr at room temperature before being terminated through mixing with 20 μL (0.2 mg) yttrium silicate SPA beads (PerkinElmer). The beads were allowed to settle for 1 hr in the dark before the plates were counted in a Wallac 1450 Microbeta counter.

PDE1B = PDE1B (Homo sapiens (Human), UniProt Q01064); assay: PDE1 inhibition assay (PDE1B), SPA; settings: 15 nM tritium labelled cAMP
PDE1B, sequence (Q01064 whole entry): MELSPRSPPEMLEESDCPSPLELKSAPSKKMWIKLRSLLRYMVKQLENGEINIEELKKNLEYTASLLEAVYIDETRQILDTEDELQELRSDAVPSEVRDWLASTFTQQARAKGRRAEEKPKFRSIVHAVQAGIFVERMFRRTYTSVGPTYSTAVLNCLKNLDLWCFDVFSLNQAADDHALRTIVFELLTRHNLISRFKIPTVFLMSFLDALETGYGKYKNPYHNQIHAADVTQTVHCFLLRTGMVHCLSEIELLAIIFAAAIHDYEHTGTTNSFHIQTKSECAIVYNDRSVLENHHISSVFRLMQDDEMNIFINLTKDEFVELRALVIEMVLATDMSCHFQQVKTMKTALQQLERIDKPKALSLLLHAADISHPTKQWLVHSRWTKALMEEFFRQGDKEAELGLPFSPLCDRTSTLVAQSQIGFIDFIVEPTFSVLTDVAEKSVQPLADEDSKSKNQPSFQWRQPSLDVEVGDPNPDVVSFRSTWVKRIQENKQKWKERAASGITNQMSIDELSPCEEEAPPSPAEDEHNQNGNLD
Method: Reactions were initiated by addition of the cyclic nucleotide substrate, and reactions were allowed to proceed for 1 hr at room temperature before being terminated through mixing with 20 μL (0.2 mg) yttrium silicate SPA beads (PerkinElmer).

PDE1C = PDE1C (Homo sapiens (Human), UniProt Q14123); assay: PDE1 inhibition assay (PDE1C), SPA; settings: 15 nM tritium labelled cAMP
PDE1C, sequence (Q14123 whole entry): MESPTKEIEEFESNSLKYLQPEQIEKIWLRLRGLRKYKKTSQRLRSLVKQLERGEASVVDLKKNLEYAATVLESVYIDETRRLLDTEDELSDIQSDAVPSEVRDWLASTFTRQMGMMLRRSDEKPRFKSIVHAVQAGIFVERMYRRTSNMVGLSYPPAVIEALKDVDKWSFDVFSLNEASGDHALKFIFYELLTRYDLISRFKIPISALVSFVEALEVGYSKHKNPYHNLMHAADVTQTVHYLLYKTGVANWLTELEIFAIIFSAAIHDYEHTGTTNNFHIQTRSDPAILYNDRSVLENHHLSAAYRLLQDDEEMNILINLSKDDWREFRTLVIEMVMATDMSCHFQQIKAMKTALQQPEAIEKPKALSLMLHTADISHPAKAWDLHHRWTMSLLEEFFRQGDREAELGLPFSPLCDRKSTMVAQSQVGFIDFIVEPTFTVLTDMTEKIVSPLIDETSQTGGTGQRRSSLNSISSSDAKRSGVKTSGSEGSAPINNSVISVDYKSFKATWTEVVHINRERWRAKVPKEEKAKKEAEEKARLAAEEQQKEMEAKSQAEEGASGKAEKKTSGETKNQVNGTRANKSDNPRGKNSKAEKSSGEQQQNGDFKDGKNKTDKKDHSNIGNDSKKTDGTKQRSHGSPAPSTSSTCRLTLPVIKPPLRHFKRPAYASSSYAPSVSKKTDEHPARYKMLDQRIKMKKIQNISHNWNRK
Method: as §1

PDE9 = PDE9 (Homo sapiens (Human), UniProt O76083); assay: PDE9 inhibition assay, SPA; settings: 10 microM compound; 10 nM 3H-cAMP;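 further: enzyme reaction incubated for 1 h, then stopped by adding yttrium silicate scintillation proximity beads for the read-out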
PDE9, sequence (O76083 whole entry): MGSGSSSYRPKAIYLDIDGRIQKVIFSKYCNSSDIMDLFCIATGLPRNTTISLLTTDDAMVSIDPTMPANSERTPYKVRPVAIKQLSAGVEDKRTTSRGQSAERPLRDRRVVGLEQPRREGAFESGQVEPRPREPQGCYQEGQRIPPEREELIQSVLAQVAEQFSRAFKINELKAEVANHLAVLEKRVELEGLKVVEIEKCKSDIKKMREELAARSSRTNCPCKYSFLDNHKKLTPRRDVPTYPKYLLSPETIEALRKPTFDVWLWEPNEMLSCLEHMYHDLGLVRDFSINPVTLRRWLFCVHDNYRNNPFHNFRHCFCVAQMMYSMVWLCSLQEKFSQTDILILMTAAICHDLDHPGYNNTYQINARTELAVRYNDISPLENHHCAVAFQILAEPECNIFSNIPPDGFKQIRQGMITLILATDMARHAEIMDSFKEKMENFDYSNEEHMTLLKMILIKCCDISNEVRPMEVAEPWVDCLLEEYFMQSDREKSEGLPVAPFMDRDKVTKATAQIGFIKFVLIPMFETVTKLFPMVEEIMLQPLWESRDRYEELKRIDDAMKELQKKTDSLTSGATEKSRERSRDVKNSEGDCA
Method: Reactions are initiated by addition of the cyclic nucleotide substrate, and reactions are allowed to proceed for one hr at room temperature before being terminated through mixing with 15 μL 8 mg/mL yttrium silicate SPA beads (Amersham).
Following 1 hr incubation the reactions were terminated by addition of 15 uL 8 mg/mL yttrium silicate SPA beads (Amersham).

PDE1A, sequence (P54750 whole entry): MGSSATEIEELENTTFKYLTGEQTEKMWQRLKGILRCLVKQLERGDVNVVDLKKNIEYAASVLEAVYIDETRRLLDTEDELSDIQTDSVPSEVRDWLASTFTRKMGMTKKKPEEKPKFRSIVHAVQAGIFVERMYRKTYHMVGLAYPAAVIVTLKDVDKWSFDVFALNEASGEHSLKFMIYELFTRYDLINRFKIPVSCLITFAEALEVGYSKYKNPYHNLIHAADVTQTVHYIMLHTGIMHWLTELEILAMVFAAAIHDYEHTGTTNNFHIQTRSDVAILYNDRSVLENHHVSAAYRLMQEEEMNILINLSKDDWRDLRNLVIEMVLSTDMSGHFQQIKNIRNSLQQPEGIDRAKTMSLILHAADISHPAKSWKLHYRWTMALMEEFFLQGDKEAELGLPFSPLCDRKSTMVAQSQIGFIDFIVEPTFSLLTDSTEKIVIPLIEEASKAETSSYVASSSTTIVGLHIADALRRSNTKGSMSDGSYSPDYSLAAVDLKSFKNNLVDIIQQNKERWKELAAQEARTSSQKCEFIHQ

COc1ccc(Cn2c(C)cc3c(cnn3[C@@H]3CCO[C@H]3C)c2=O)cc1 (relative stereo) [Example 26, 5-[(4-methoxyphenyl)methyl]-6-methyl-1-[(trans)-2-methyltetrahydrofuran-3-yl]pyrazolo[4,3-c]pyridin-4-one]
pIC50 (PDE1A): 6.69 | pIC50 (PDE1B): 7.08 | pIC50 (PDE1C): 6.46 | inhibition at 10 µM (PDE9): 8%

Cc1nc2c(cnn2C2CCOCC2)c(=O)n1CC1CCCCC1 [Example 3, 5-(cyclohexylmethyl)-6-methyl-1-tetrahydropyran-4-yl-pyrazolo[3,4-d]pyrimidin-4-one]
pIC50 (PDE1A): 6.76 | pIC50 (PDE1B): 6.99 | pIC50 (PDE1C): 7.54 | inhibition at 10 µM (PDE9): 29%

COc1ccc(Cn2c(C)cc3c(cnn3C3CCCOC3)c2=O)cc1 (stereo not drawn) [Example 25, 5-[(4-methoxyphenyl)methyl]-6-methyl-1-tetrahydropyran-3-yl-pyrazolo[4,3-c]pyridin-4-one]
pIC50 (PDE1A): 6.08 | pIC50 (PDE1C): 6.19 | inhibition at 10 µM (PDE9): 8%

COc1ccc(Cn2c(C)cc3c(cnn3C3CCOCC3)c2=O)cn1 [Example 18, 5-[(6-methoxy-3-pyridyl)methyl]-6-methyl-1-tetrahydropyran-4-yl-pyrazolo[4,3-c]pyridin-4-one]
pIC50 (PDE1A): 6.13 | pIC50 (PDE1C): 5.93 | inhibition at 10 µM (PDE9): 9%

CCCn1ncc2c(=O)n(Cc3ccc(OC)cc3)c(C)nc21 [Example 4, 5-[(4-methoxyphenyl)methyl]-6-methyl-1-propyl-pyrazolo[3,4-d]pyrimidin-4-one]
pIC50 (PDE1A): 6.97 | pIC50 (PDE1B): 7.17 | pIC50 (PDE1C): 7.14 | inhibition at 10 µM (PDE9): 13%

COCc1nc2c(cnn2C2CCOCC2)c(=O)n1Cc1ccc(OC)cc1 [Example 7, 6-(methoxymethyl)-5-[(4-methoxyphenyl)methyl]-1-tetrahydropyran-4-yl-pyrazolo[3,4-d]pyrimidin-4-one]
pIC50 (PDE1A): 6.49 | pIC50 (PDE1B): 6.74 | pIC50 (PDE1C): 6.46 | inhibition at 10 µM (PDE9): -12%

Cc1cc2c(cnn2C2CCOCC2)c(=O)n1Cc1ccc(Cl)cc1 [Example 12, 5-[(4-chlorophenyl)methyl]-6-methyl-1-tetrahydropyran-4-yl-pyrazolo[4,3-c]pyridin-4-one]
pIC50 (PDE1A): 6.90 | pIC50 (PDE1C): 6.38 | inhibition at 10 µM (PDE9): 16%

CCn1ncc2c(=O)n(Cc3ccc(OC)cc3)c(C)cc21 [Example 24, 1-ethyl-5-[(4-methoxyphenyl)methyl]-6-methyl-pyrazolo[4,3-c]pyridin-4-one]
pIC50 (PDE1A): 5.95 | pIC50 (PDE1B): 6.48 | pIC50 (PDE1C): 5.88 | inhibition at 10 µM (PDE9): 19%

COc1ccc(Cn2c(C)cc3c(cnn3C3CCOC3)c2=O)cc1 (stereo not drawn) [Example 22, 5-[(4-methoxyphenyl)methyl]-6-methyl-1-tetrahydrofuran-3-yl-pyrazolo[4,3-c]pyridin-4-one]
pIC50 (PDE1A): 5.77 | pIC50 (PDE1B): 6.24 | pIC50 (PDE1C): 5.92 | inhibition at 10 µM (PDE9): 8%

COc1ccc(Cn2c(C)cc3c(cnn3[C@@H]3CCO[C@@H]3C)c2=O)cc1 (relative stereo) [Example 27, 5-[(4-methoxyphenyl)methyl]-6-methyl-1-[(cis)-2-methyltetrahydrofuran-3-yl]pyrazolo[4,3-c]pyridin-4-one]
pIC50 (PDE1A): 5.89 | pIC50 (PDE1B): 6.75 | pIC50 (PDE1C): 6.16 | inhibition at 10 µM (PDE9): 13%

O=c1c2cnn(C3CCOCC3)c2nc(Cc2ccccc2)n1CC1CCCCC1 [Example 1, 6-benzyl-5-(cyclohexylmethyl)-1-(tetrahydro-2H-pyran-4-yl)-1,5-dihydro-4H-pyrazolo[3,4-d]pyrimidin-4-one]
pIC50 (PDE1A): 6.46 | pIC50 (PDE1B): 6.49 | pIC50 (PDE1C): 6.92 | inhibition at 10 µM (PDE9): 51%

Cc1cc2c(cnn2C2CCOCC2)c(=O)n1Cc1ccccc1F [Example 11, 5-[(2-fluorophenyl)methyl]-6-methyl-1-tetrahydropyran-4-yl-pyrazolo[4,3-c]pyridin-4-one]
pIC50 (PDE1A): 6.23 | pIC50 (PDE1C): 7.21 | inhibition at 10 µM (PDE9): 12%

Cc1ccc(Cn2c(C)cc3c(cnn3C3CCOCC3)c2=O)cc1 [Example 16, 6-methyl-5-(p-tolylmethyl)-1-tetrahydropyran-4-yl-pyrazolo[4,3-c]pyridin-4-one]
pIC50 (PDE1A): 6.40 | pIC50 (PDE1B): 7.15 | pIC50 (PDE1C): 6.30 | inhibition at 10 µM (PDE9): -1%

Cc1cc2c(cnn2C2CCOCC2)c(=O)n1Cc1ccccc1 [Example 13, 5-benzyl-6-methyl-1-tetrahydropyran-4-yl-pyrazolo[4,3-c]pyridin-4-one]
pIC50 (PDE1A): 5.90 | pIC50 (PDE1C): 6.87 | inhibition at 10 µM (PDE9): -18%

CCc1nc2c(cnn2C2CCOCC2)c(=O)n1Cc1ccc(OC)cc1 [Example 6, 6-ethyl-5-[(4-methoxyphenyl)methyl]-1-tetrahydropyran-4-yl-pyrazolo[3,4-d]pyrimidin-4-one]
pIC50 (PDE1A): 6.97 | pIC50 (PDE1B): 7.10 | pIC50 (PDE1C): 6.85 | inhibition at 10 µM (PDE9): 2%

COc1ccc(Cn2c(C)cc3c(cnn3C(C)C)c2=O)cc1 [Example 21, 1-isopropyl-5-[(4-methoxyphenyl)methyl]-6-methyl-pyrazolo[4,3-c]pyridin-4-one]
pIC50 (PDE1A): 7.31 | pIC50 (PDE1B): 7.43 | pIC50 (PDE1C): 6.87 | inhibition at 10 µM (PDE9): -14%

Cc1cc2c(cnn2C2CCOCC2)c(=O)n1Cc1cccc(Cl)c1 [Example 14, 5-[(3-chlorophenyl)methyl]-6-methyl-1-tetrahydropyran-4-yl-pyrazolo[4,3-c]pyridin-4-one]
pIC50 (PDE1A): 5.89 | pIC50 (PDE1B): 6.38 | pIC50 (PDE1C): 7.02 | inhibition at 10 µM (PDE9): -15%

Cc1cc2c(cnn2C2CCOCC2)c(=O)n1Cc1ccc2c(c1)OCO2 [Example 17, 5-(1,3-benzodioxol-5-ylmethyl)-6-methyl-1-tetrahydropyran-4-yl-pyrazolo[4,3-c]pyridin-4-one]
pIC50 (PDE1A): 6.37 | pIC50 (PDE1B): 6.81 | pIC50 (PDE1C): 6.18 | inhibition at 10 µM (PDE9): -2%

COc1ccc(Cn2c(C)cc3c(cnn3C3CC3)c2=O)cc1 [Example 23, 1-cyclopropyl-5-[(4-methoxyphenyl)methyl]-6-methyl-pyrazolo[4,3-c]pyridin-4-one]
pIC50 (PDE1A): 6.27 | pIC50 (PDE1B): 6.59 | pIC50 (PDE1C): 6.01 | inhibition at 10 µM (PDE9): -6%

COc1ccc(Cn2c(CC3COC3)nc3c(cnn3C3CCOCC3)c2=O)cc1 [Example 9, 5-[(4-methoxyphenyl)methyl]-6-(oxetan-3-ylmethyl)-1-tetrahydropyran-4-yl-pyrazolo[3,4-d]pyrimidin-4-one]
pIC50 (PDE1B): 7.24 | pIC50 (PDE1C): 6.78 | inhibition at 10 µM (PDE9): 12%

COc1ccc(Cn2c(C)cc3c(cnn3C3CCOCC3)c2=O)cc1 [Example 19, 5-(4-methoxybenzyl)-6-methyl-1-(tetrahydro-2H-pyran-4-yl)-1,5-dihydro-4H-pyrazolo[4,3-c]pyridin-4-one]
pIC50 (PDE1A): 6.74 | pIC50 (PDE1C): 6.77 | inhibition at 10 µM (PDE9): 19%

CCCn1ncc2c(=O)n(Cc3ccc(OC)cc3)c(C)cc21 [Example 20, 5-(4-methoxybenzyl)-6-methyl-1-propyl-1,5-dihydro-4H-pyrazolo[4,3-c]pyridin-4-one]
pIC50 (PDE1A): 6.54 | pIC50 (PDE1B): 7.09 | pIC50 (PDE1C): 6.63 | inhibition at 10 µM (PDE9): 19%

COc1ccc(Cn2c(C(C)C)nc3c(cnn3C3CCOCC3)c2=O)cc1 [Example 8, 6-isopropyl-5-[(4-methoxyphenyl)methyl]-1-tetrahydropyran-4-yl-pyrazolo[3,4-d]pyrimidin-4-one]
pIC50 (PDE1A): 6.12 | pIC50 (PDE1B): 6.68 | pIC50 (PDE1C): 5.88 | inhibition at 10 µM (PDE9): 7%

COc1ccc(Cn2c(C)cc3c(cnn3C3COC3)c2=O)cc1 [Example 28, 5-(4-methoxybenzyl)-6-methyl-1-(oxetan-3-yl)-1,5-dihydro-4H-pyrazolo[4,3-c]pyridin-4-one]
inhibition at 10 µM (PDE1A; read-out: PDE1A, % inhibition @10 μM, 10 μM compound): 63% | pIC50 (PDE1B): 6.15 | pIC50 (PDE1C): 5.66 | inhibition at 10 µM (PDE9): 14%

CCCn1ncc2c(=O)n(CC3CCCCC3)c(C)nc21 [Example 5, 5-(cyclohexylmethyl)-6-methyl-1-propyl-pyrazolo[3,4-d]pyrimidin-4-one]
pIC50 (PDE1A): 6.95 | pIC50 (PDE1B): 7.51 | pIC50 (PDE1C): 7.44 | inhibition at 10 µM (PDE9): -16%

Cc1cc2c(cnn2C2CCOCC2)c(=O)n1Cc1cccc(F)c1 [Example 10, 5-[(3-fluorophenyl)methyl]-6-methyl-1-tetrahydropyran-4-yl-pyrazolo[4,3-c]pyridin-4-one]
pIC50 (PDE1A): 5.97 | pIC50 (PDE1C): 6.83 | inhibition at 10 µM (PDE9): 3%

COc1ccc(Cn2c(C)cc3c(cnn3C3(C)CCOCC3)c2=O)cc1 [Example 29, 5-(4-methoxybenzyl)-6-methyl-1-(4-methyltetrahydro-2H-pyran-4-yl)-1,5-dihydro-4H-pyrazolo[4,3-c]pyridin-4-one]
pIC50 (PDE1A): 6.92 | pIC50 (PDE1B): 7.06 | pIC50 (PDE1C): 6.76 | inhibition at 10 µM (PDE9): 26%

Cc1cc2c(cnn2C2CCOCC2)c(=O)n1Cc1ccc(F)cc1 [Example 15, 5-[(4-fluorophenyl)methyl]-6-methyl-1-tetrahydropyran-4-yl-pyrazolo[4,3-c]pyridin-4-one]
pIC50 (PDE1A): 5.91 | pIC50 (PDE1B): 6.59 | pIC50 (PDE1C): 6.69 | inhibition at 10 µM (PDE9): -13%

COc1ccc(Cn2c(C)nc3c(cnn3C3CCOCC3)c2=O)cc1 [Example 2, 5-(4-methoxybenzyl)-6-methyl-1-(tetrahydro-2H-pyran-4-yl)-1H-pyrazolo[3,4-d]pyrimidin-4(5H)-one]
pIC50 (PDE1A): 6.88 | pIC50 (PDE1B): 7.21 | pIC50 (PDE1C): 7.13 | inhibition at 10 µM (PDE9): 10%
